“And” between values parts separate entries of the source, which are not always exact repeats. Equal values may be shown once. Toxic doses and inconclusive results are not listed.
Test system: P388 leukemia ip, CD2F1 mice, survival T/C
Test: NCI In Vivo Anticancer Drug Screen. Data for tumor model P388 Leukemia (intraperitoneal) in CD2F1 (CDF1) mice
Settings: endpoint: median survival time, higher = longer survival
Outline: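 Mice carrying the transplanted tumor received test compound or vehicle. Survival was recorded in each group, and the value is the treated-group measurement divided by that of the vehicle-treated control group.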

[1] = dose: 50.0 mg/kg/injection, schedule: Q01DX009 (ip), vehicle: saline
[2] = dose: 100.0 mg/kg/injection, schedule: Q01DX009 (ip), vehicle: saline
[3] = dose: 200.0 mg/kg/injection, schedule: Q01DX009 (ip), vehicle: saline
[4] = dose: 25.0 mg/kg/injection, schedule: Q01DX005 (ip), vehicle: Klucel (hydroxypropylcellulose) (HPC)
[5] = dose: 50.0 mg/kg/injection, schedule: Q01DX005 (ip), vehicle: Klucel (hydroxypropylcellulose) (HPC)
[6] = dose: 100.0 mg/kg/injection, schedule: Q01DX005 (ip), vehicle: Klucel (hydroxypropylcellulose) (HPC)
[7] = dose: 200.0 mg/kg/injection, schedule: Q01DX005 (ip), vehicle: Klucel (hydroxypropylcellulose) (HPC)
[8] = dose: 25.0 mg/kg/injection, schedule: Q01DX009 (ip), vehicle: saline
[9] = dose: 100.0 mg/kg/injection, schedule: Q04DX002 (ip), vehicle: saline with Tween-80
[10] = dose: 200.0 mg/kg/injection, schedule: Q04DX002 (ip), vehicle: saline with Tween-80
[11] = dose: 50.0 mg/kg/injection, schedule: Q01DX009 (ip), vehicle: saline with Tween-80
[12] = dose: 100.0 mg/kg/injection, schedule: Q01DX009 (ip), vehicle: saline with Tween-80
[13] = dose: 200.0 mg/kg/injection, schedule: Q01DX009 (ip), vehicle: saline with Tween-80
[14] = dose: 60.0 mg/kg/injection, schedule: Q01DX005 (ip), vehicle: saline with Tween-80
[15] = dose: 120.0 mg/kg/injection, schedule: Q01DX005 (ip), vehicle: saline with Tween-80
[16] = dose: 240.0 mg/kg/injection, schedule: Q01DX005 (ip), vehicle: saline with Tween-80

Nc1ccc(S(=O)(=O)NCCO)cc1[N+](=O)[O-]
T/C (dose: 100.0 mg/kg/injection, schedule: Q01DX001 (ip), vehicle: saline with Tween-80): 95 % of control | T/C (dose: 200.0 mg/kg/injection, schedule: Q01DX001 (ip), vehicle: saline with Tween-80): 100 % of control | T/C (dose: 400.0 mg/kg/injection, schedule: Q01DX001 (ip), vehicle: saline with Tween-80): 100 % of control

CN1CCN(CCSSCCN2CCN(C)CC2)CC1
T/C [1]: 109 % of control | T/C [2]: 104 % of control | T/C [3]: 109 % of control

Cc1cc2c(cc1C)NC(=O)C(NC(=O)c1ccc(Cl)cc1)C=N2 (stereo unspecified)
T/C (dose: 60.0 mg/kg/injection, schedule: Q01DX005 (ip), vehicle: Klucel (hydroxypropylcellulose) (HPC)): 92 % of control | T/C (dose: 120.0 mg/kg/injection, schedule: Q01DX005 (ip), vehicle: Klucel (hydroxypropylcellulose) (HPC)): 93 % of control | T/C (dose: 240.0 mg/kg/injection, schedule: Q01DX005 (ip), vehicle: Klucel (hydroxypropylcellulose) (HPC)): 93 % of control

CC(=O)C1=C(O)C(CC(C)C)NC1=O (stereo unspecified)
T/C [4]: 102 % of control | T/C [5]: 102 % of control | T/C [6]: 101 % of control

CC[C@@]12C[C@]1(C(=O)OC)C(=O)N1CCc3c([nH]c4ccccc34)[C@H]12
T/C [5]: 90 % of control | T/C [6]: 96 % of control | T/C [7]: 91 % of control

CN1c2ccccc2C(C)(C)C2Nc3c(C#N)cnc(N)c3C21 (stereo unspecified)
T/C (dose: 50.0 mg/kg/injection, schedule: Q04DX003 (ip), vehicle: saline with Tween-80): 96 % of control | T/C (dose: 100.0 mg/kg/injection, schedule: Q04DX003 (ip), vehicle: saline with Tween-80): 105 % of control | T/C (dose: 200.0 mg/kg/injection, schedule: Q04DX003 (ip), vehicle: saline with Tween-80): 109 % of control

C[N+](C)(N)Cc1nc(-c2ccc(Cl)cc2)no1
T/C [1]: 98 % of control | T/C [2]: 93 % of control

Cc1ccc(S(=O)(=O)N(Cc2ccc(Cl)cc2)S(=O)(=O)c2ccc(C)cc2)cc1
T/C [8]: 110 % of control | T/C [1]: 108 % of control | T/C [2]: 100 % of control | T/C (dose: 200.0 mg/kg/injection, schedule: Q01DX009 (ip), vehicle: Klucel (hydroxypropylcellulose) (HPC)): 100 % of control

CC1=C(C)C(=O)C(C(C)(C)CC(=O)Sc2ncnc3nc[nH]c23)=C(C)C1=O
T/C [9]: 97 % of control | T/C [10]: 99 % of control

Nc1n[n+](-c2cccc([N+](=O)[O-])c2)no1
T/C (dose: 3.13 mg/kg/injection, schedule: Q01DX009 (ip), vehicle: other): 113 % of control | T/C (dose: 3.13 mg/kg/injection, schedule: Q01DX009 (ip), vehicle: water): 106 % of control | T/C (dose: 6.25 mg/kg/injection, schedule: Q01DX009 (ip), vehicle: other): 113 % of control | T/C (dose: 6.25 mg/kg/injection, schedule: Q01DX009 (ip), vehicle: water): 110 % of control | T/C (dose: 25.0 mg/kg/injection, schedule: Q01DX009 (ip), vehicle: water): 121 % of control | T/C (dose: 50.0 mg/kg/injection, schedule: Q01DX009 (ip), vehicle: other): 113 % of control

O=[N+]([O-])c1ccc(/C=N/O)s1
T/C (dose: 12.5 mg/kg/injection, schedule: Q01DX009 (ip), vehicle: Klucel (hydroxypropylcellulose) (HPC)): 109 % of control | T/C (dose: 25.0 mg/kg/injection, schedule: Q01DX009 (ip), vehicle: Klucel (hydroxypropylcellulose) (HPC)): 101 % of control | T/C (dose: 50.0 mg/kg/injection, schedule: Q01DX009 (ip), vehicle: Klucel (hydroxypropylcellulose) (HPC)): 108 % of control

O=C(O)C(F)(F)F.O=C(O)C(F)(F)F.O=C(O)C(F)(F)F.O=C(O)C(F)(F)F.[Rh].[Rh]
T/C [8]: 86 % of control | T/C [1]: 110 % of control | T/C (dose: 50.0 mg/kg/injection, schedule: Q01DX009 (ip), vehicle: suspension in saline): 104 % of control | T/C [2]: 122 % of control | T/C (dose: 100.0 mg/kg/injection, schedule: Q01DX009 (ip), vehicle: suspension in saline): 123 % of control

CCCCC(NC(=O)CC)C(=O)O (stereo unspecified)
T/C (dose: 6.25 mg/kg/injection, schedule: Q01DX009 (ip), vehicle: saline): 107 % of control | T/C (dose: 12.5 mg/kg/injection, schedule: Q01DX009 (ip), vehicle: saline): 94 % of control | T/C [8]: 98 % of control | T/C [3]: 100 % of control

CC(=O)OC(C)(C)/N=N/C(C)(C)OC(C)=O
T/C (dose: 25.0 mg/kg/injection, schedule: Q01DX009 (ip), vehicle: saline with Tween-80): 103 % of control | T/C [11]: 101 % of control | T/C [12]: 111 % of control | T/C [13]: 100 % of control

S=C(NCCl)NCc1ccccc1
T/C [5]: 105 % of control | T/C [6]: 100 % of control | T/C [7]: 105 % of control

O=C1C2=C(C(=O)c3ncccc31)C1C=CC2CC1 (stereo unspecified)
T/C (dose: 25.0 mg/kg/injection, schedule: Q01DX005 (ip), vehicle: DMSO): 100 % of control | T/C (dose: 50.0 mg/kg/injection, schedule: Q01DX005 (ip), vehicle: DMSO): 100 % of control | T/C (dose: 50.0 mg/kg/injection, schedule: Q01DX005 (ip), vehicle: Klucel + Tween-80): 102 % of control | T/C (dose: 100.0 mg/kg/injection, schedule: Q01DX005 (ip), vehicle: DMSO): 104 % of control | T/C (dose: 100.0 mg/kg/injection, schedule: Q01DX005 (ip), vehicle: Klucel + Tween-80): 96 % of control

COc1ccc2c(c1)C=CC1OC(C(C)=O)(C(C)=O)C(C=O)=CN21 (stereo unspecified)
T/C [14]: 92 % of control | T/C [15]: 89 % of control | T/C [16]: 98 % of control

CCOC(=O)c1c(C)csc1NC(=O)CSCC(=O)OC
T/C [14]: 99 % of control | T/C [15]: 100 % of control | T/C [16]: 94 % of control

CN(C)C1=CC(=O)NC2CCCCC12 (stereo unspecified)
T/C [5]: 95 % of control | T/C [6]: 98 % of control | T/C [7]: 105 % of control

C1=C(N2CCOCC2)N(c2ccccc2)c2ccccc2N=C1N1CCCC1
T/C (dose: 12.5 mg/kg/injection, schedule: Q01DX005 (ip), vehicle: Klucel (hydroxypropylcellulose) (HPC)): 100 % of control | T/C [4]: 91 % of control | T/C [5]: 103 % of control and 96 % of control

[N-]=[N+]=CC(=O)OCC1NC(=O)C(COC(=O)C=[N+]=[N-])NC1=O (stereo unspecified)
T/C (dose: 12.5 mg/kg/injection, schedule: Q01DX009 (ip), vehicle: other): 104 % of control and 102 % of control | T/C (dose: 25.0 mg/kg/injection, schedule: Q01DX009 (ip), vehicle: other): 113 % of control and 101 % of control | T/C (dose: 100.0 mg/kg/injection, schedule: Q01DX009 (ip), vehicle: other): 111 % of control and 120 % of control | T/C (dose: 200.0 mg/kg/injection, schedule: Q01DX009 (ip), vehicle: other): 95 % of control and 111 % of control | T/C (dose: 3.1 micrograms/kg/injection, schedule: Q01DX009 (ip), vehicle: water): 109 % of control and 104 % of control | T/C (dose: 6.1 micrograms/kg/injection, schedule: Q01DX009 (ip), vehicle: water): 98 % of control and 101 % of control | T/C (dose: 12.2 micrograms/kg/injection, schedule: Q01DX009 (ip), vehicle: water): 114 % of control and 100 % of control | T/C (dose: 24.4 micrograms/kg/injection, schedule: Q01DX009 (ip), vehicle: water): 104 % of control and 107 % of control | T/C (dose: 48.8 micrograms/kg/injection, schedule: Q01DX009 (ip), vehicle: water): 100 % of control | T/C (dose: 97.5 micrograms/kg/injection, schedule: Q01DX009 (ip), vehicle: water): 92 % of control and 97 % of control | T/C (dose: 195.0 micrograms/kg/injection, schedule: Q01DX009 (ip), vehicle: water): 100 % of control and 96 % of control | T/C (dose: 390.0 micrograms/kg/injection, schedule: Q01DX009 (ip), vehicle: water): 109 % of control and 105 % of control | T/C (dose: 780.0 micrograms/kg/injection, schedule: Q01DX009 (ip), vehicle: water): 100 % of control

CC(C)(C)N=C(CCC(C#N)(C#N)CCC(=NC(C)(C)C)Nc1c(Cl)cccc1Cl)Nc1c(Cl)cccc1Cl
T/C [11]: 99 % of control | T/C [12]: 92 % of control | T/C [13]: 92 % of control

O=C1CS(=O)(=O)C(c2cccnc2)N1CCN1C(=O)CS(=O)(=O)C1c1cccnc1 (stereo unspecified)
T/C [9]: 97 % of control | T/C [10]: 93 % of control | T/C (dose: 400.0 mg/kg/injection, schedule: Q04DX002 (ip), vehicle: saline with Tween-80): 92 % of control

CN(C)S(=O)(=O)CCNC(=O)N(CCCl)N=O
T/C (dose: 2.5 mg/kg/injection, schedule: Q01DX005 (ip), vehicle: saline): 100 % of control | T/C (dose: 5.0 mg/kg/injection, schedule: Q01DX005 (ip), vehicle: saline): 104 % of control | T/C (dose: 10.0 mg/kg/injection, schedule: Q01DX005 (ip), vehicle: saline): 119 % of control and 218 % of control | T/C (dose: 20.0 mg/kg/injection, schedule: Q01DX005 (ip), vehicle: saline): 203 % of control and 250 % of control
